# From patent US20240327393A1 (SIRONAX LTD., priority 2021, published 2024)
# Test system: HT-1080 (ATCC, CCL-121) cells
# Test: HT-1080 cell viability assay with ferroptosis inducer RSL3 (Cell Titer-Glo)
# Format: cell-based
# Conditions: HT-1080 cells treated with RSL3; 3-fold, 10-point dilution, 1.1 μM highest concentration; Table 3; read-out: EC50 (nM), ferroptosis inhibitory activity
# Protocol: Example 2. Determination of EC50 Values in HT-1080 Cell Viability Assay
# HT-1080 (ATCC, CCL-121) cells (6000 in 100 μl) were seeded in 96-well plates (Corning) and cultured in a 37° C. incubator with a humidified atmosphere of 5% CO2 for overnight. Cells were then treated with ferroptosis inducer RSL3 (TargetMol) and a 3-fold, 10-point serial dilution series of compounds with 1.1 μM as the highest concentration, […]. Cell viability was assessed using the Cell Titer-Glo Kit (Promega). The luminescence intensity was measured with a microplate reader (Envision, PerkinElmer), and cell viability was calculated by normalizing the data to untreated controls. The EC50 values of the compounds (e.g., Compounds 1-659) were calculated in GraphPad Prism (GraphPad Software, Inc., San Diego, CA, USA). The curves were fitted using a non-linear regression model with a sigmoidal dose response.
row,Structure (SMILES),EC50 [nM]
1,"Cc1cc(N2CCC(C(F)(F)F)C2)ccc1Nc1ccc2c(c1)OCC(=O)N2 (stereo not drawn) [Compound 588, 7-((2-methyl-4-(3-(trifluoromethyl)pyrrolidin-1-yl)phenyl)amino)-2H-benzo[b][1,4]oxazin-3(4H)-one]",0.1 to 100

# Same assay, conditions: Homo sapiens; HT-1080 cells treated with RSL3; 3-fold, 10-point dilution, 1.1 μM highest concentration; Table 2; read-out: EC50 (nM), ferroptosis inhibitory activity
row,Structure (SMILES),EC50 [nM]
1,"CN1C(=O)COc2cc(Nc3ccc(OCCCF)cc3)ccc21 [Compound 13, 7-((4-(3-fluoropropoxy)phenyl)amino)-4-methyl-2H-benzo[b][1,4]oxazin-3(4H)-one]",0.1 to 100
2,"CN(C)CCN1C(=O)COc2cc(Nc3ccc(N4CCC(C(F)(F)F)CC4)cc3)ccc21 [Compound 94, 4-(2-(dimethylamino)ethyl)-7-((4-(4-(trifluoromethyl)piperidin-1-yl)phenyl)amino)-2H-benzo[b][1,4]oxazin-3(4H)-one]",0.1 to 100
3,"Cn1c(=O)n(C)c2cc(Nc3ccsc3)ccc21 [Compound 342, 1,3-dimethyl-5-(thiophen-3-ylamino)-1,3-dihydro-2H-benzo[d]imidazol-2-one]",100 to 1000
4,"Cn1c(=O)n(C)c2cc(Nc3ccc(C4CCC(C)(C)CC4)cc3)ccc21 [Compound 407, 5-((4-(4,4-dimethylcyclohexyl)phenyl)amino)-1,3-dimethyl-1,3-dihydro-2H-benzo[d]imidazol-2-one]",0.1 to 100
5,"CC(C)(C)c1ccc(Nc2ccc3c(c2)OCC(=O)N3)cc1 [Compound 135, 7-((4-(tert-butyl)phenyl)amino)-2H-benzo[b][1,4]oxazin-3(4H)-one]",0.1 to 100
6,"CN1C(=O)COc2cc(Nc3ccc(F)c(N4CCC(C(F)(F)F)CC4)c3)ccc21 [Compound 33, 7-((4-fluoro-3-(4-(trifluoromethyl)piperidin-1-yl)phenyl)amino)-4-methyl-2H-benzo[b][1,4]oxazin-3(4H)-one]",0.1 to 100
7,"CC1CN(c2ccc(Nc3ccc4c(=O)n(C)[nH]c4c3)cc2)CC(C)O1 (stereo not drawn) [Compound 432, 6-((4-(2,6-dimethylmorpholino)phenyl)amino)-2-methyl-1H-indazol-3(2H)-one]",0.1 to 100
8,"CC1CCN(c2ccc(Nc3ccc4c(c3)n(C)c(=O)n4C)cc2F)CC1 [Compound 283, 5-((3-fluoro-4-(4-methylpiperidin-1-yl)phenyl)amino)-1,3-dimethyl-1,3-dihydro-2H-benzo[d]imidazol-2-one]",0.1 to 100
9,"FC(F)(F)C1CCN(c2ccc(Nc3ccc4cn[nH]c4c3)cc2)CC1 [Compound 366, N-(4-(4-(trifluoromethyl)piperidin-1-yl)phenyl)-1H-indazol-6-amine]",0.1 to 100
10,"CC1CCN(c2ccc(Nc3ccc4c(c3)ncc(=O)n4C)cc2)CC1 [Compound 115, 1-methyl-6-((4-(4-methylpiperidin-1-yl)phenyl)amino)quinoxalin-2(1H)-one]",0.1 to 100
11,"CCCCOc1ccc(Nc2ccc3c(c2)OCC(=O)N3C)cn1 [Compound 12, 7-((6-butoxypyridin-3-yl)amino)-4-methyl-2H-benzo[b][1,4]oxazin-3(4H)-one]",0.1 to 100
12,"Cc1cc(N2CC(C)OC(C)C2)ccc1Nc1cc(F)c2c(c1)OCC(=O)N2C (stereo not drawn) [Compound 141, ((4-(2,6-dimethylmorpholino)-2-methylphenyl)amino)-5-fluoro-4-methyl-2H-benzo[b][1,4]oxazin-3(4H)-one]",0.1 to 100
13,"CN1Cc2ccc(Nc3ccc(N4CCC(C(F)(F)F)CC4)c(F)c3)cc2C1=O [Compound 169, 6-((3-fluoro-4-(4-(trifluoromethyl)piperidin-1-yl)phenyl)amino)-2-methylisoindolin-1-one]",0.1 to 100
14,"Cn1cc(C(N)=O)c2ccc(Nc3ccc(N4CCC(C(F)(F)F)CC4)cc3)cc21 [Compound 403, 1-methyl-6-((4-(4-(trifluoromethyl)piperidin-1-yl)phenyl)amino)-1H-indole-3-carboxamide]",0.1 to 100
15,"CN1C(=O)COc2cc(Nc3cnc(N4CCC(C(F)(F)F)CC4)c(F)c3)ccc21 [Compound 27, 7-((5-fluoro-6-(4-(trifluoromethyl)piperidin-1-yl)pyridin-3-yl)amino)-4-methyl-2H-benzo[b][1,4]oxazin-3(4H)-one]",0.1 to 100
16,"CCn1c(=O)oc2ccc(Nc3ccc(N4CCC(C(F)(F)F)CC4)cc3)cc21 [Compound 392, 3-ethyl-5-((4-(4-(trifluoromethyl)piperidin-1-yl)phenyl)amino) benzo[d]oxazol-2(3H)-one]",0.1 to 100
17,"Cn1c(=O)n(C)c2cc(Nc3cnc(N4CCC(C(F)(F)F)CC4)c(F)c3)ccc21 [Compound 378, 5-((5-fluoro-6-(4-(trifluoromethyl)piperidin-1-yl)pyridin-3-yl)amino)-1,3-dimethyl-1,3-dihydro-2H-benzo[d]imidazol-2-one]",0.1 to 100
18,"Cc1cc(Nc2ccc3c(c2)OCC(=O)N3C)cnc1N1CCC(C(F)(F)F)CC1 [Compound 142, 4-methyl-7-((5-methyl-6-(4-(trifluoromethyl)piperidin-1-yl)pyridin-3-yl)amino)-2H-benzo[b][1,4]oxazin-3(4H)-one]",0.1 to 100
19,"CN1CCOc2cc(Nc3ccc(N4CCC(C(F)(F)F)CC4)cc3)ccc21 [Compound 114, 4-methyl-N-(4-(4-(trifluoromethyl)piperidin-1-yl)phenyl)-3,4-dihydro-2H-benzo[b][1,4]oxazin-7-amine]",0.1 to 100
20,"CN1C(=O)COc2cc(Nc3ccc(N4C[C@@H]5C[C@H]4CO5)c(F)c3)ccc21 [Compound 97, 7-((4-((1S,4S)-2-oxa-5-azabicyclo[2.2.1]heptan-5-yl)-3-fluorophenyl)amino)-4-methyl-2H-benzo[b][1,4]oxazin-3(4H)-one]",0.1 to 100
21,"CC1CN(c2ccc(Nc3cnc4c(c3)OCC(=O)N4C)cc2)CC(C)O1 (stereo not drawn) [Compound 76, 7-((4-(2,6-dimethylmorpholino)phenyl)amino)-4-methyl-2H-pyrido[3,2-b][1,4]oxazin-3(4H)-one]",0.1 to 100
22,"CC1CN(c2ccc(Nc3ccc4c(c3)OCCN4C)cc2)CC(C)O1 (stereo not drawn) [Compound 60, N-(4-(2,6-dimethylmorpholino)phenyl)-4-methyl-3,4-dihydro-2H-benzo[b][1,4]oxazin-7-amine]",0.1 to 100
23,"Cn1nnc2cc(Nc3ccc(N4CCC(C(F)(F)F)CC4)cc3)ccc21 [Compound 300, 1-methyl-N-(4-(4-(trifluoromethyl)piperidin-1-yl)phenyl)-1H-benzo[d][1,2,3]triazol-5-amine]",0.1 to 100
24,"Cc1cc(N2CC(C)OC(C)C2)c(F)cc1Nc1ccc2c(c1)OCC(=O)N2C (stereo not drawn) [Compound 61, 7-((4-(2,6-dimethylmorpholino)-5-fluoro-2-methylphenyl)amino)-4-methyl-2H-benzo[b][1,4]oxazin-3(4H)-one]",0.1 to 100

# Same assay, conditions: Homo sapiens; HT-1080 cells treated with RSL3; 3-fold, 10-point dilution, 1.1 μM highest concentration; Table 3; read-out: EC50 (nM), ferroptosis inhibitory activity
row,Structure (SMILES),EC50 [nM]
1,"Cc1cc(N2CC3CC3C2)ccc1Nc1ccc2c(c1)OCC(=O)N2 (stereo not drawn) [Compound 641, 7-((4-(3-azabicyclo[3.1.0]hexan-3-yl)-2-methylphenyl)amino)-2H-benzo[b][1,4]oxazin-3(4H)-one]",0.1 to 100
2,"Cc1cc(N2CCC(C(F)(F)F)CC2)ccc1Nc1ccn2ncc(C(N)=O)c2c1 [Compound 625, 5-((2-methyl-4-(4-(trifluoromethyl)piperidin-1-yl)phenyl)amino) pyrazolo[1,5-a]pyridine-3-carboxamide]",0.1 to 100
3,"Cc1cc(N2CCC(C(F)(F)F)CC2)ccc1Nc1ccc2c(c1)OCC(O)C(=O)N2 (stereo not drawn) [Compound 646, 3-hydroxy-8-((2-methyl-4-(4-(trifluoromethyl)piperidin-1-yl)phenyl)amino)-2,3-dihydrobenzo[b][1,4]oxazepin-4(5H)-one]",0.1 to 100
4,"Cc1cc(N2CCC(C(F)(F)F)CC2)ccc1Nc1ccc2c(c1)OC(CN)C(=O)N2 (stereo not drawn) [Compound 592, 2-(aminomethyl)-7-((2-methyl-4-(4-(trifluoromethyl)piperidin-1-yl)phenyl)amino)-2H-benzo[b][1,4]oxazin-3(4H)-one]",0.1 to 100
5,"CCNc1ccc(Nc2ccc3c(c2)OCC(=O)N3)c(C)c1 [Compound 635, 7-((4-(ethylamino)-2-methylphenyl)amino)-2H-benzo[b][1,4]oxazin-3(4H)-one]",0.1 to 100
6,"O=C1COc2cc(Nc3ccc(N4CCC(F)CC4)cc3)ccc2N1 [Compound 508, 7-((4-(4-fluoropiperidin-1-yl)phenyl)amino)-2H-benzo[b][1,4]oxazin-3(4H)-one]",0.1 to 100
7,"Cc1cc(N2CCC(C(F)(F)F)CC2)ccc1Nc1ccc2c(c1)CN(C)C(=O)N2 [Compound 566, 3-methyl-6-({2-methyl-4-[4-(trifluoromethyl)piperidin-1-yl]phenyl}amino)-1,4-dihydroquinazolin-2-one]",0.1 to 100
8,"Cc1cc(N2CC(OC(F)F)C2)ccc1Nc1ccc2c(c1)OCC(=O)N2 [Compound 652, 7-[4-[3-(difluoromethoxy)azetidin-1-yl]-2-methyl-anilino]-4H-1,4-benzoxazin-3-one]",0.1 to 100
9,"Cc1cc(N2C[C@@H](C)O[C@@H](C)C2)ccc1Nc1ccc2cn[nH]c2c1 [Compound 648, N-(2-methyl-4-((2S,6R)-2,6-dimethylmorpholino)phenyl)-1H-indazol-6-amine]",0.1 to 100
10,Cc1cc(N2CC(C(F)(F)F)C2)ccc1Nc1ccc2c(c1)OCCC(=O)N2 [Compound 590],0.1 to 100
11,"Cc1cc(N2C[C@@H](C)O[C@@H](C)C2)ccc1Nc1ccc2c(c1)CNC(=O)N2 [Compound 494, 6-((4-((2R,6S)-2,6-dimethylmorpholino)-2-methylphenyl)amino)-3,4-dihydroquinazolin-2(1H)-one]",0.1 to 100
